Measured values published in patent publication US10501499B2 (priority 2012, dated 2019).

Legend:
human PBMCs [1] = format: cell-based
human PBMCs [2] = format: cell-based; remark: listed apart in the source

Sequence | Intracellular Uptake (human PBMCs [1]) | Extracellular Uptake (human PBMCs [2])
RGTANWARVISRANWAKVILRNWAKVI [BI330-83c] | 154.43 | 435.66
RGTANWARVISRGANWAKVILRNWAKVI [BI330-83d] | 52.14 | 267.38
RGTANWARVISRRANWAKVILRNWAKVI [BI330-83b] | 120.10 | 518.60
RGYLPAVGAPIRRRVIRVIAHGLRLR [BI310-511] | 22.62 | 227.46
RGYLPAVGAPIRRVIRVIAHGLRL [BI310-511g] | 66.74 | 171.31
RGYLPAVGAPIRRVIRVIAHGLRLR [BI310-511e] | 44.59 | 473.80
RGYLPAVGAPIRVIRVIAHGLRLR [BI310-511f] | 26.85 | 178.61
RRGTANWARVISRANWAKVILRNWAKVI [BI330-83] | 194.69 | 364.04
RRGYLPAVGAPIRRRVIRVIAHGLRL [BI310-511c] | 31.83 | 203.62
RRGYLPAVGAPIRRVIRVIAHGLRL [BI310-511d] | 70.64 | 267.15
RRGYLPAVGAPIRRVIRVIAHGLRLR [BI310-511b] | 67.29 | 466.71
